Experimental data taken from patent US5817816A (Meiji Seika Kaisha, Ltd., priority 1997, dated 1998).

What follows are compounds tested against T1, progesterone receptor (Sus scrofa, UniProt D0EWS6) (assay: Progesterone receptor binding inhibition ([3H]-progesterone, hog uterus cytosol)). Details: [3H]-progesterone ligand, 60 min at 4° C.
T1 construct: from tissue; host or cells: hog uterus, 100,000×g supernatant (cytosol)
T1 sequence (D0EWS6 1-934): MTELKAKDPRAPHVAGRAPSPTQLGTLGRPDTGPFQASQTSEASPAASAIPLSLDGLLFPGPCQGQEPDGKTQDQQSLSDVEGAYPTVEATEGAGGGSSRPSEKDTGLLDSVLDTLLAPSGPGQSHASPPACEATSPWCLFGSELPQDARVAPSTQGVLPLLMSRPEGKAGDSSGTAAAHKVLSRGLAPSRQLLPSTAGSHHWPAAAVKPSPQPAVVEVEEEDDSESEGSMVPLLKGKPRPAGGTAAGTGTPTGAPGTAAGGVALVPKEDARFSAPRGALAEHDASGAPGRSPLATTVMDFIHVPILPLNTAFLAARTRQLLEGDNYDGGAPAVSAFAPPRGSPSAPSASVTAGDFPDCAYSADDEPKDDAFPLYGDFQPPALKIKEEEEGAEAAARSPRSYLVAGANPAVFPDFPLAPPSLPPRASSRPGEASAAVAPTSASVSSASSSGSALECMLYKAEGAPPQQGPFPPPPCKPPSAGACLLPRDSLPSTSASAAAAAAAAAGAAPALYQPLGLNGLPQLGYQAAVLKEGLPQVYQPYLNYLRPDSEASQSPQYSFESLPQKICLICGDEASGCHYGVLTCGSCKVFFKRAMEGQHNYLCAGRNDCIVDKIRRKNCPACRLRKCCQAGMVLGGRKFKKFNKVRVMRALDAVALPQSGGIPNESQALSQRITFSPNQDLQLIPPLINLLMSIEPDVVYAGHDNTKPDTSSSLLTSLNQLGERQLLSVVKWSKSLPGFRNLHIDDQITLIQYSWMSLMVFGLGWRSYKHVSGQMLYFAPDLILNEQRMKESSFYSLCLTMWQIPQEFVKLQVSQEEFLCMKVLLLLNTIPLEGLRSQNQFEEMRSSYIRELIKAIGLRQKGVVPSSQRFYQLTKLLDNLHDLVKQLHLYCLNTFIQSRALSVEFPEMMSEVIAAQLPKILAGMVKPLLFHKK
Set-up: species or system hogs
Description: That is, uteri taken from hogs were disrupted in 5 mM phosphate buffer by means of Polytron homogenizer, and this solution was centrifuged (100,000×g, 30 min) to separate the supernatant, thereby preparing a cytosol containing progesterone receptor. A given concentration of a test drug solution (10 μl) was added to a solution composed of 50 μl of the cytosol obtained Just above (2-3 mg protein/ml) and 40 μl of a solution of [^3 H]-progesterone as a ligand (3.84 TBq/mM, 18.5 kBq/ml), and they were incubated in a test tube for 60 min at 4° C. to effect a reaction. Then, 100 μl of a 0.5% activated carbon solution was added to the reaction solution, and the mixture was allowed to stand for 10 min and then centrifuged (2,000×g, 10 min). The radioactivity of the supernatant was measured with a liquid scintillation counter.
Separately, the radioactivity was measured in the same manner as described above, except that no test drug was added. Further, the radioactivity was measured in the same manner as described above, except that 10 μl of Medroxyprogesterone Acetate (MPA) (10 μg/ml) was added instead of the test drug. The radioactivity with no test drug added was defined as the amount of total binding of [^3 H]-progesterone to the cytosol, and the radioactivity with MPA added was defined as the amount of non-specific binding. […] [formula]

Question: For `CC(=O)O[C@H]1CC(Cl)=C2C=C3OC(=O)C(C)=C3C[C@]2(C)[C@H]1C` [Example 7a, 3β-Acetoxy-1-chloroeremophila-1(10),7(11),8(9)-trien-12,8-olide], which IC50 is on record?
Answer: < 100 nM

Question: Which IC50 does the source give for `COC(=O)C(C)=C1C[C@@]2(C)C(=CC1=O)C=C[C@H](OC(C)=O)[C@@H]2C` [Example 14a, 3β-Acetoxy-8-oxoeremophila-1(2),7(11),9(10)-trien-12-oic acid methyl ester] here?
Answer: 600 nM

Question: `CC(=O)O[C@H]1C=CC2=C[C@H]3OC(=O)C(C)=C3C[C@]2(C)[C@H]1C` [Example 15, 3β-Acetoxyeremophila-1(2),7(11),9(10)-trien-12,8β-olide] was tested. Which IC50 did it give?
Answer: < 100 nM

Question: `CC(=O)O[C@H]1CC(Sc2ccccc2)=C2C=C3OC(=O)C(C)=C3C[C@]2(C)[C@H]1C` [Example 21a, 3β-Acetoxy-1-phenylthioeremophila-1(10),7(11),8(9)-trien-12,8-olide] was tested. Which IC50 did it give?
Answer: 700 nM

Question: With `CC(=O)O[C@H]1CC=C2C=C3OC(=O)C(C)=C3C[C@]2(C)[C@H]1C` [Example 7b, 3β-Acetoxyeremophila-1(10),7(11),8(9)-trien-12,8-olide] as the compound, how does the IC50 read?
Answer: < 100 nM

Question: `CC1=C2C[C@@]3(C)C(=CC=C[C@@H]3C)C=C2OC1=O` [Example 16, Eremophila-1(10),2(3),7(11),8(9)-tetraen-12,8-olide] was tested. Which IC50 did it give?
Answer: 400 nM

Question: For `CCOC1=C2C=C3OC(=O)C(C)=C3C[C@]2(C)[C@@H](C)[C@@H](OC(C)=O)C1` [Example 21b, 3β-Acetoxy-1-ethoxyeremophila-1(10),7(11),8(9)-trien-12,8-olide], which IC50 is on record?
Answer: 279 nM
